{
  "source": "patent US8222414B2",
  "about": "“Indole compounds as an inhibitor of cellular necrosis” (LG Life Sciences Ltd., priority 2007, dated 2012)",
  "data": [
    {"system": "primary hepatocytes isolated from rats", "assay": "Cell protective effects against doxorubicin in hepatocytes (WST-1 cell viability)", "format": "cell-based", "conditions": "Hepatocyte; primary rat hepatocytes pretreated with compound for 30 min, then doxorubicin; viability by WST-1 after 24-48 h", "experimental": "(§1) Various endogenous/exogenous attacks on the cells trigger the mechanisms of cell death which is broadly classified into two types, i.e. apoptosis or necrosis. Using these cell death mechanisms, in the present experimental example, primacy hepatocytes isolated from rats were treated with drugs which were clinically shown to result in serious side-effects of hepatocyte toxicity or various chemicals which derive cell death, and the compounds synthesized in the Examples were estimated for their hepatocyte protective effects, after 24-48 h. The substances used to derive hepatocyte death include CCl4, ActD, H2O2, doxorubicin, anti-Fas Ab/Actinomycin D, acetaminophen, EtOH, CdCl2, palmitate, stearate, cyclophosphamide, terfenadine, diclofenac, simvastatin, and adefovir. Primary hepatocytes were isolated using the method of Seglen P O (Experimental Cell Research 74 (1972) pp 450-454). Briefly, hepatocytes were isolated according to the two-step collagenase perfusion method, and dead cells were removed by low speed (500 rpm) centrifugation for 10 min using percoll gradient (Kreamer B L etc, In Vitro Cellular & Developmental Biology 22 (1986) pp 201-211). During this step, the viability of cells was maintained 90% or above. The cells were suspended in HepatoZYME media (Gibco BRL), and the number of cells was counted. 1.5×10^4 cells in 100 μl were placed into the collagen-coated 96-well plate (BD biocoat), and adhered on the bottom for 3-4 h.\n(§2) In order to assess the hepatocyte protective effect, above adhered cells were pretreated with the Example compounds for 30 min. At this time, the concentration of the Example compounds were serially diluted by 2-fold or 3-fold over 5 steps starting from 30 uM, 10 uM or 1 uM depending on the experiments, and the final concentration of DMSO was adjusted to 0.2%. 30 min after the treatment by compounds, cells were treated by the substances deriving hepatocyte death or hepatotoxic drugs at the concentrations indicated in Table 1. After 24-48 h, the viability of cells was determined to estimate the hepatocyte protective effects. The viability of cells was determined using WST-1 (MK-400, […]) method by the absorbance at 440 nm. Hepatocyte protective effects of the Example compounds were represented by “EC50” which was calculated from measured values. “EC50” herein means the concentration of the compound at which 50% of maximum protective effect is observed in the experiment.", "units": {"EC50": "nM"}, "values": [
      {"smiles": "CS(=O)(=O)c1ccc(Oc2cc(NC3CCCC3)c3[nH]c(C4=N[C@H](CC(=O)O)CS4)cc3c2)cc1", "note": "[Example 94, [(R)-2-(5-(4-(methanesulfonyl)phenoxy)-7-cyclopentylamino-1H-indol-2-yl)-4,5-dihydro-thiazol-4-yl]-acetic acid]", "EC50": 28100},
      {"smiles": "CC(=O)N1CC[C@@H](Nc2cccc3cc(C4=N[C@H](CO)CS4)[nH]c23)C1", "note": "[Example 43, {(R)-2-[7-((3R)-1-acetylpyrrolidin-3-yl)amino-1H-indol-2-yl]-4,5-dihydro-1,3-thiazol-4-yl}-methanol]", "EC50": "1000 to 10000"},
      {"smiles": "O=C(O)C[C@@H]1CSC(c2cc3cc(Oc4ccccc4)cc(NCC4CCOCC4)c3[nH]2)=N1", "note": "[Example 15, [(R)-2-(5-phenoxy-7-(tetrahydropyran-4-yl)methylamino-1H-indol-2-yl)-4,5-dihydro-thiazol-4-yl]-acetic acid]", "EC50": 600},
      {"smiles": "Cc1cc(NCC2CCOCC2)c2[nH]c(C3=N[C@H](CC(=O)O)CS3)cc2c1", "note": "[Example 8, [(R)-2-(5-methyl-7-(tetrahydropyran-4-yl)methylamino-1H-indol-2-yl)-4,5-dihydro-thiazol-4-yl]-acetic acid]", "EC50": 410},
      {"smiles": "OC[C@@H]1CSC(c2cc3cccc(NC4CCCC4)c3[nH]2)=N1", "note": "[Example 2, [(R)-2-(7-cyclopentylamino-1H-indol-2-yl)-4,5-dihydro-1,3-thiazol-4-yl]-methanol]", "EC50": 100},
      {"smiles": "NC[C@@H]1CSC(c2cc3cccc(NC4CCCC4)c3[nH]2)=N1", "note": "[Example 173, [2-((R)-4-aminomethyl-4,5-dihydro-thiazol-2-yl)-1H-indol-7-yl]-cyclopentyl-amine]", "EC50": 1980},
      {"smiles": "O=C1c2ccccc2C(=O)N1Cc1cc(NC2CCCC2)c2[nH]c(C3=N[C@H](CO)CS3)cc2c1", "note": "[Example 64, [(R)-2-(5-(isoindol-1,3-dion-2-yl)methyl-7-cyclopentylamino-1H-indol-2-yl)-4,5-dihydro-thiazol-4-yl]-methanol]", "EC50": 540},
      {"smiles": "Cc1cc(NC2CCOC2)c2[nH]c(C3=N[C@@H](CC(=O)O)CS3)cc2c1", "note": "(stereo partly drawn) [Example 20, [(S)-2-(5-methyl-7-(tetrahydrofuran-3-yl)amino-1H-indol-2-yl)-4,5-dihydro-thiazol-4-yl]-acetic acid]", "EC50": 5770},
      {"smiles": "c1ccc(Oc2cc(NCC3CCOCC3)c3[nH]c(C4=N[C@@H](CCN5CCOCC5)CS4)cc3c2)cc1", "note": "[Example 247, (5-Phenoxy-2-{(S)-4-[morpholin-4-yl-ethyl]-4,5-dihydro-thiazol-2-yl}-1H-indol-7-yl)-(tetrahydropyran-4-yl)methyl-amine]", "EC50": 860},
      {"smiles": "O=C(O)C[C@H]1CSC(c2cc3cc(Oc4ccccc4)cc(NC4CCCC4)c3[nH]2)=N1", "note": "[Example 50, [(S)-2-(5-phenoxy-7-cyclopentylamino-1H-indol-2-yl)-4,5-dihydro-thiazol-4-yl]-acetic acid]", "EC50": 250},
      {"smiles": "Cc1cc(NCC2CC2)c2[nH]c(C3=N[C@@H](CC(=O)O)CS3)cc2c1", "note": "[Example 21, [(S)-2-(5-methyl-7-cyclopropylmethylamino-1H-indol-2-yl)-4,5-dihydro-thiazol-4-yl]-acetic acid]", "EC50": 300},
      {"smiles": "N[C@H]1CCN(CC[C@H]2CSC(c3cc4cc(Oc5ccccc5)cc(NC5CCCC5)c4[nH]3)=N2)C1", "note": "[Example 238, (5-Phenoxy-2-{(S)-4-[(3S)-3-(amino)pyrrolidin-1-yl-ethyl]-4,5-dihydro-thiazol-2-yl}-1H-indol-7-yl)-cyclopentyl-amine]", "EC50": 330},
      {"smiles": "O=C(O)CC[C@@H]1CSC(c2cc3cc(Cl)cc(NC4CCCC4)c3[nH]2)=N1", "note": "[Example 101, 3-[(R)-2-(5-chloro-7-cyclopentylamino-1H-indol-2-yl)-4,5-dihydro-thiazol-4-yl]-propionic acid]", "EC50": "1000 to 10000"},
      {"smiles": "Cc1cc(NCC2CCOCC2)c2[nH]c(C3=N[C@@H](CCN4CCCC4C(N)=O)CS3)cc2c1", "note": "(stereo partly drawn) [Example 240, (5-Methyl-2-{(S)-4-[2-(aminocarbonyl)pyrrolidin-1-yl-ethyl]-4,5-dihydro-thiazol-2-yl}-1H-indol-7-yl)-(tetrahydropyran-4-yl)methyl-amine]", "EC50": 280},
      {"smiles": "CCOc1cc(NC2CCCC2)c2[nH]c(C3=N[C@@H](CC(=O)OC)CS3)cc2c1", "note": "[Example 46, [(S)-2-(5-ethoxy-7-cyclopentylamino-1H-indol-2-yl)-4,5-dihydro-thiazol-4-yl]-acetic acid methyl ester]", "EC50": 400},
      {"smiles": "CN(C)Cc1cc(NC2CCCC2)c2[nH]c(C3=N[C@H](CO)CS3)cc2c1", "note": "[Example 34, [(R)-2-(5-(dimethylamino)methyl-7-cyclopentylamino-1H-indol-2-yl)-4,5-dihydro-thiazol-4-yl]-methanol]", "EC50": 5580},
      {"smiles": "c1ccc(Oc2cc(NC3CCCC3)c3[nH]c(C4=N[C@H](CCN5CCCC5)CS4)cc3c2)cc1", "note": "[Example 246, (5-Phenoxy-2-{(R)-4-[pyrrolidin-1-yl-ethyl]-4,5-dihydro-thiazol-2-yl}-1H-indol-7-yl)-cyclopentyl-amine]", "EC50": 350},
      {"smiles": "CCCOc1cc(NC2CCCC2)c2[nH]c(C3=N[C@H](CC(=O)O)CS3)cc2c1", "note": "[Example 84, [(R)-2-(5-propyloxy-7-cyclopentylamino-1H-indol-2-yl)-4,5-dihydro-thiazol-4-yl]-acetic acid]", "EC50": 1600},
      {"smiles": "COC(=O)C[C@@H]1CSC(c2cc3cc(CS(C)(=O)=O)cc(NC4CCCC4)c3[nH]2)=N1", "note": "[Example 97, [(R)-2-(5-methanesulfonylmethyl-7-cyclopentylamino-1H-indol-2-yl)-4,5-dihydro-thiazol-4-yl]-acetic acid methyl ester]", "EC50": 4100},
      {"smiles": "CC1CSC(c2cc3cccc(NC4CCOCC4)c3[nH]2)=N1", "note": "(stereo not shown) [Example 32, (Tetrahydropyran-4-yl)-[2-(4,5-dihydro-4-methyl-thiazol-2-yl)-1H-indol-7-yl]-amine]", "EC50": 2120},
      {"smiles": "c1ccc(Oc2cc(NC3CCCC3)c3[nH]c(C4=N[C@@H](CCN5CCNCC5)CS4)cc3c2)cc1", "note": "[Example 230, (5-Phenoxy-2-{(S)-4-[(piperazin-1-yl)-ethyl]-4,5-dihydro-thiazol-2-yl}-1H-indol-7-yl)-cyclopentyl-amine]", "EC50": "> 320"},
      {"smiles": "OC[C@@H]1CSC(c2cc3cccc(NC4CCOCC4)c3[nH]2)=N1", "note": "[Example 51, [(R)-2-(7-(tetrahydropyran-4-yl)amino-1H-indol-2-yl)-4,5-dihydro-thiazol-4-yl]-methanol]", "EC50": 600},
      {"smiles": "CCOc1cc(NC2CCCC2)c2[nH]c(C3=N[C@H](CC(=O)O)CS3)cc2c1", "note": "[Example 83, [(R)-2-(5-ethoxy-7-cyclopentylamino-1H-indol-2-yl)-4,5-dihydro-thiazol-4-yl]-acetic acid]", "EC50": 600},
      {"smiles": "Cc1cc(NC2CCCC2)c2[nH]c(C3=N[C@@H](CC(=O)O)CS3)cc2c1", "note": "[Example 26, [(S)-2-(5-methyl-7-cyclopentylamino-1H-indol-2-yl)-4,5-dihydro-thiazol-4-yl]-acetic acid]", "EC50": 200},
      {"smiles": "Cc1cc(NC2CCC(F)(F)CC2)c2[nH]c(C3=N[C@@H](CCN4CCOCC4)CS3)cc2c1", "note": "[Example 251, (5-Methyl-2-{(S)-4-[morpholin-4-yl-ethyl]-4,5-dihydro-thiazol-2-yl}-1H-indol-7-yl)-4,4-difluorocyclohexyl-amine]", "EC50": 300},
      {"smiles": "O=C(O)[C@@H]1CSC(c2cc3cccc(NC4CCOCC4)c3[nH]2)=N1", "note": "[Example 78, [(R)-2-(7-(tetrahydropyran-4-yl)amino-1H-indol-2-yl)-4,5-dihydro-thiazol-4-yl]-carboxylic acid]", "EC50": 29400},
      {"smiles": "O=C1CN(CC[C@H]2CSC(c3cc4cccc(NC5CCOCC5)c4[nH]3)=N2)CCN1", "note": "[Example 182, (2-{(S)-4-[(2-oxopiperazin-4-yl)-ethyl]-4,5-dihydro-thiazol-2-yl}-1H-indol-7-yl)-(tetrahydro-pyran-4-yl)-amine]", "EC50": 375},
      {"smiles": "CN(C)c1cccc(CC[C@H]2CSC(c3cc4cc(Cl)cc(NC5CCCC5)c4[nH]3)=N2)c1", "note": "[Example 177, (5-Chloro-2-{(S)-4-[2-(3-dimethylamino-phenyl)-ethyl]-4,5-dihydro-thiazol-2-yl}-1H-indol-7-yl)-cyclopentyl-amine]", "EC50": "> 1000"}
    ]},
    {"system": "primary hepatocytes isolated from rats", "assay": "Cell protective effects against doxorubicin in hepatocytes (WST-1 cell viability)", "format": "cell-based", "conditions": "primary rat hepatocytes pretreated with compound for 30 min, then doxorubicin; viability by WST-1 after 24-48 h", "experimental": "as §1, §2", "units": {"EC50": "nM"}, "values": [
      {"smiles": "CC(C)(C)OC(=O)N1CCN(CC[C@H]2CSC(c3cc4cc(Oc5ccccc5)cc(NC5CCCC5)c4[nH]3)=N2)CC1", "note": "[Example 231, t-Butyl-(4-{2-[(S)-2-(5-phenoxy-7-cyclopentylamino)-1H-indol-2-yl)-4,5-dihydro-thiazol-4-yl]-ethyl}-piperazine-1-carboxylate]", "EC50": 200},
      {"smiles": "Fc1ccccc1N1CCN(CC[C@H]2CSC(c3cc4cc(Oc5ccccc5)cc(NC5CCCC5)c4[nH]3)=N2)CC1", "note": "[Example 236, (5-Phenoxy-2-{(S)-4-[(2-fluorophenyl)piperazine-ethyl]-4,5-dihydro-thiazol-2-yl}-1H-indol-7-yl)-cyclopentyl-amine]", "EC50": 160},
      {"smiles": "O=C(CO)N1CCN(CC[C@H]2CSC(c3cc4cc(Oc5ccccc5)cc(NC5CCCC5)c4[nH]3)=N2)CC1", "note": "[Example 229]", "EC50": 250}
    ]}
  ]
}
